{
  "source": "patent US20060276970A1",
  "about": "“Apparatus and method for the ozone preservation of crops” (Biofresh Limited, priority 2003, published 2006)",
  "key": {"[1]": {"tested_on": "Botrytis cinerea", "experiment": "Grey mould lesion development on wound-inoculated tomato fruit in ozone-enriched air", "format": "in vivo", "conditions": "50 ppb ozone, even for 2-8 h, 13° C., 95% RH", "description": "Fruit were wound-inoculated with a mycelial plug containing the pathogen^2 at day 0, transferred to charcoal-filtered air (CFA) or an ozone enriched CFA environment and then removed at intervals to 'clean air'. ^1 Monitored using duplicate photometric analysers calibrated to US-EPA standards ^2 plugs (2.5 mm diameter) were removed from the advancing margins of 3-day-old B. cinerea cultures (4-5-day-old in the case of A. alternaria) and inserted into a superficial wound made in the surface of the fruit (two wound-inoculations per fruit) FIG. 1. Experimental design: Fruit maintained in 'clean air' (CFA, →) or ozone (50 ppb or 200 ppb (→) and then inoculated (↓) with an agar plug containing the pathogen. Exposure to ozone performed in the dark at 13° C. and 95%. FIG. 2. Impacts of ozone-enrichment on the development of grey mould (Botrytis cinerea) on tomato (Lycopersicon esculentum […]) fruit wound-inoculated with a mycelial plug (Lycopersicon esculentum […]). Fruit were maintained in controlled environment chambers at 13° C. and 95% RH ventilated with charcoal-filtered 'clean' air (CFA, □) or CFA plus a trace level of ozone (50 ppb, ●). For experimental design see FIG. 1. Values represent mean (±SE) for 3-4 replicate fruit. Experiments repeated several times."}, "[2]": {"tested_on": "Alternaria alternata", "experiment": "Black spot development on wound-inoculated tomato fruit in ozone-enriched air", "format": "in vivo", "conditions": "50 ppb ozone, even for 2-8 h", "description": "The development of black spot (Alternaria alternata) was suppressed by more than 50% in fruit maintained in an atmosphere containing a trace level of ozone (50 ppb)—even for a relatively short period of time (2-8 h). Fruit were inoculated with a mycelial plug containing the pathogen and the experiment was performed according to design B (FIG. 1).\nFIG. 3. Impacts of ozone-enrichment on the development of black spot (Alternaria alternata) raised on tomato fruit (Lycopersicon esculentum L. cv. Mareta) wound-inoculated with an agar plug containing mycelia of the pathogen. Fruit were maintained in controlled environment chambers at 13° C. and 95% RFL Chambers were ventilated with ‘clean’ (chracoal-filtered) air (CFA, □) or CFA plus a trace level of ozone (50 ppb, ●). Values represent mean (±SE) for 3-4 replicate fruit."}, "[3]": {"tested_on": "Alternaria alternata", "experiment": "Spore production and viability on wound-inoculated tomato fruit", "format": "in vivo", "conditions": "for Spore prod.: 50 ppb O3, tomato fruit, 13° C., 95% RH, after 9-12 d", "description": "(§1) Fruit were wound-inoculated with a suspension containing c. 25×10^3 spores of Botrytis, Alternaria or Colletotrichum, then incubated in clean air or in an atmosphere containing a trace level of ozone (50 ppb) at 13° C., 95% RH. After 9-12 d, spores were washed from inoculated fruit, counts made on a haemocytometer and recovered spore aliquots inoculated onto agar. In vitro spore germination was monitored following 72 h incubation in ‘clean air’ or ‘clean air’ plus a trace level of ozone."}, "[4]": {"tested_on": "Botrytis cinerea", "experiment": "Spore production and viability on wound-inoculated tomato fruit", "format": "in vivo", "conditions": "for Spore germ.: 50 ppb O3, recovered spores on agar, 72 h incubation; for Spore prod.: 50 ppb O3, tomato fruit, 13° C., 95% RH, after 9-12 d", "description": "as §1"}, "[5]": {"tested_on": "Colletotrichum coccodes", "experiment": "Spore production and viability on wound-inoculated tomato fruit", "format": "in vivo", "conditions": "for Spore germ.: 50 ppb O3, recovered spores on agar, 72 h incubation; for Spore prod.: 50 ppb O3, tomato fruit, 13° C., 95% RH, after 9-12 d", "description": "as §1"}, "[6]": {"tested_on": "Botrytis cinerea", "experiment": "Spore production on wound-inoculated easi-peel citrus, grapes and plums", "format": "in vivo", "conditions": "100 ppb ozone, 13° C., 95% RH, grapes, plums", "description": "Fruit were wound-inoculated with spore suspensions of Botrytis cinerea, then incubated in either clean air or an atmosphere containing a trace level of ozone (100 ppb) at 13° C. and 95% RH.\nFIG. 4. Impact of a trace level of ozone enrichment (solid bars) on the development of Botrytis cinerea (based on spore counts) on easi-peel citrus, grapes & plums Fruit were wound-inoculated with spore suspensions containing 10^3 (‘low’ inoculum concentration), 10^5 (‘medium’ inoculum concentration) or 10^7 (‘high’ inoculum concentration) Botrytis cinerea, then incubated in clean air or an atmosphere containing a trace level of ozone (100 ppb) at 13° C. and 95% RH, After 8-12 d, spores were washed from inoculated fruit, counts made on a haemocytometer and aliquots incubated on agar. Control fruit were maintained in ‘clean air’ (cross-hatch bars).\nPlates 2a & 2b. Impact of a trace level of ozone enrichment on the development of Botrytis cinerea on easi-peel citrus and plums. Fruit were wound-inoculated with/in spore suspensions containing 10^3 (‘low’ inoculum concentration), 10^5 (‘medium’ inoculum concentration) or 10^7 (‘high’ inoculum concentration) Botrytis cinerea, then incubated in clean air or an atmosphere containing a trace level of ozone (100 ppb) at 13° C. and 95% RR Control fruit were maintained in ‘clean air’."}, "[7]": {"tested_on": "silver scurf (Helminthosporium solani)", "experiment": "Silver scurf development on stored potato tubers (spore counts, lesion area)", "format": "in vivo", "conditions": "for Lesion development (%): potato tubers; for Spores/ml: potato tubers cv. Estima, 3.5° C. then 13° C.", "description": "Tubers […] were washed and selected for similar levels of silver scurf (Helminthosporium solani) infection. Prior to storage, tubers were sprayed with water in order to simulate a condensation event to promote the development of the disease. Tubers were then placed in chambers maintained at 3.5° C.±0.5° C., >95% RH) ventilated with either 'clean air' (charcoal-filtered air'; CFA) or 'clean air' plus a trace level of ozone (200 ppb). After four weeks, half the tubers were removed, then the temperature raised to 13±0.5° C. […] A spore count was calculated for each tuber (n=10) using a haemocytometer. Additionally, the initial and final surface area covered in silver scurf lesions was measured using a […] devices image analyser. Taking into account shrinkage of the potato over the storage period, the percentage of each tuber covered in silver scurf was calculated."}, "[8]": {"tested_on": "targeted fungal pathogens", "experiment": "Colony development of fungal pathogens in vitro", "format": "cell-based", "conditions": "ozone concentrations upto 5.0 ppm", "description": "This implies that the observed suppression of spoilage organisms by ozone results from molecular/biochemical changes in the treated produce per se—presumably through subtle shifts in the manner in which plant tissue responds to challenge by pathogens (see FIG. 7)."}, "[9]": {"tested_on": "Botrytis cinerea", "experiment": "Vaccination: tomato fruit exposed to ozone before wound-inoculation with grey mould", "format": "in vivo", "description": "Tomato fruit were incubated for varying periods in ‘clean’ air or an atmosphere enriched with a trace level of ozone (50 ppb), then wound-inoculated with a mycelial plug of grey mould (Botrytis cinerea). Two experimental designs were adopted for the investigation of ‘memory’ effects induced by ozone:\n(§2) (a) Fruit were incubated in clean air prior to transfer to an atmosphere containing a trace level of ozone in such a manner that fruit were wound-inoculated with the pathogen at the same physiological age. For gene expression studies, RNA was extracted from fruit snap-frozen in liquid nitrogen 24 h after wounding/inoculation, immediately following exposure to ‘clean air’ or ozone, and after 1 or 2 weeks' storage in ‘clean air’\nOr, (b) Fruit were incubated in clean air or ozone and wound-inoculated with Botrytis cincerea either (i) immediately following the period of exposure, (ii) following 1 weeks' incubation in ‘clean air’ or (iii) following 2 weeks' incubation in ‘clean air’\nFIG. 5. Experimental designs to test whether exposure to a trace level of ozone vaccinates produce against subsequent infection. Tomato fruit were maintained in charcoal filtered air (CPA, →) or ozone (→) prior to wound-inoculation (↓) with grey mould (Botrytis cinerea). […] Lesion development was monitored during storage in clean air, over a 7-d incubation period. […]"}, "[10]": {"tested_on": "Aco1, Aos, Chit3α, Chit9b, Glucac, Glucbs, Hpl", "experiment": "Gene expression (RT-PCR) in tomato fruit induced by wounding/pathogen", "format": "in vivo, Lycopersicon esculentum L.", "conditions": "50 ppb ozone", "description": "as §2\nShifts in gene expression patterns were therefore consistent with the observed effects of trace ozone-enrichment on the development of a variety of fungal pathogens.\nFIG. 7. Ozone-induced suppression of gene expression (probed by RT-PCR) induced by wounding/pathogen. Aco1 (aminocyclopropancarboxylic acid oxidase) and Aos (allene-oxide synthase) govern the production of ethylene and jasmonate, respectively. These are key signalling molecules. Chit3a (chi3 type chitinase acidic), Chit9b (chi9-type chitinase basic), Glucac (β-1-3 glucanase acidic), Glucbs (β-1-3 glucanase basic), and Hpl hydroperoxide lyase) are all involved with defence against pathogens and other stresses. Gapdh was used as the control gene. Measurements made on tomato fruit (Lycopersicon esculentum L.) incubated throughout in controlled environment chambers maintained at 13° C. and 95% RH and ventilated with clean air or 50 ppb ozone. FIG. 7a, immediate; FIG. 7b, 1 week; FIG. 7c 2 weeks."}, "[11]": {"conditions": "200 ppb ozone weeks 1-4, NFA weeks 5-8"}, "[12]": {"conditions": "200 ppb ozone weeks 1-4 and weeks 5-8"}},
  "data": [
    {"compound": "O=[O+][O-]", "note": "[ozone]", "values": [
      {"measurement": "Grey mould lesion development", "setting": "[1]", "result": "dramatically suppressed"},
      {"measurement": "Suppression of black spot development", "setting": "[2]", "result": "more than 50%"},
      {"measurement": "Spore germ.", "setting": "[3]; 50 ppb O3, recovered spores on agar, 72 h incubation", "result": "99.86 ± 0.137"},
      {"measurement": "Spore prod.", "setting": "[3]", "result": "dramatically reduced"},
      {"measurement": "Spore prod.", "setting": "[3]; listed as O3", "result": "5.83 ± 0.645"},
      {"measurement": "Spore germ.", "setting": "[4]", "result": "significantly reduced"},
      {"measurement": "Spore germ.", "setting": "[4]; listed as O3", "result": "96.76 ± 0.613"},
      {"measurement": "Spore prod.", "setting": "[4]", "result": "dramatically reduced"},
      {"measurement": "Spore prod.", "setting": "[4]; listed as O3", "result": "7.50 ± 1.510"},
      {"measurement": "Spore germ.", "setting": "[5]", "result": "significantly reduced"},
      {"measurement": "Spore germ.", "setting": "[5]; listed as O3", "result": "52.50 ± 4.550"},
      {"measurement": "Spore prod.", "setting": "[5]", "result": "dramatically reduced"},
      {"measurement": "Spore prod.", "setting": "[5]; listed as O3", "result": "2.44 ± 0.526"},
      {"measurement": "Development of the pathogen (based on spore production)", "setting": "[6]", "result": "dramatically reduced"},
      {"measurement": "Lesion development (%)", "setting": "[7]; [11]", "result": 21.34, "unit": "a %"},
      {"measurement": "Spores/ml", "setting": "[7]; [11]", "result": "3.9 × 10^6 c Spores/ml"},
      {"measurement": "Lesion development (%)", "setting": "[7]; [12]", "result": 12.81, "unit": "b %"},
      {"measurement": "Spores/ml", "setting": "[7]; [12]", "result": "1.7 × 10^6 b Spores/ml"},
      {"measurement": "Direct effects on colony development in vitro", "setting": "[8]", "result": "No direct effects"},
      {"measurement": "Persistence of vaccination effect after removal from ozone", "setting": "[9]; tomato fruit transferred to clean air", "result": "persisted for up to two weeks"},
      {"measurement": "Pathogen development after prior exposure to ozone", "setting": "[9]; trace level of ozone (50 ppb), even 2-8 h, before inoculation, tomato fruit", "result": "marked suppression"},
      {"measurement": "Persistence of gene expression effects after transfer to clean air", "setting": "[10]", "result": "persisted for upto two weeks"},
      {"measurement": "Expression of signal-transduction and defence genes", "setting": "[10]; 13° C., 95% RH", "result": "decline"}
    ]}
  ]
}
